Data set [1] has as its system HIV-19881. Nature of the data set: Anti-HIV-1 assay, non-syncytium inducing strain (p24). As to conditions: Human immunodeficiency virus 1, PBMC; HIV-19881, PBMCs, determined by p24. The class given is cell-based. As to the method:
(§1) ANTIVIRAL ASSAYS. The anti-HIV-1 activity of the compound A (−) were assessed by employing HIV-1IIIB in a variety of cell types as previously described (Gu et al., 1992, 1994, 1999; Rando et al., 1995; Salomon et al., 1994). Briefly, cells were incubated with virus at a multiplicity of infection (MOI) of 0.005 for T cell assays and an MOI of 0.5 for monocytic cell assays for 3 hrs. Unbound virus was then removed by washing the cells, followed by seeding the cells into a 96-well plate. The infected cells were cultured in the presence of a serial concentrations of the test compound for 5-7 days. The anti-HIV-1 efficacy was determined by testing for HIV-1 RT activity or p24 level in the cell culture supernatants. All assays were performed in duplicate. Zidovudine and/or lamivudine were used as controls in each experiment.
(§2) Furthermore, antiretroviral activity of the compound A (−) was also assessed using different types of HIV-1 strains. […]

Data set [2] concerns HIV-1macBAL. Nature of the data set: Anti-HIV-1 assay, dual tropic strain (p24). Type of data set: cell-based. The note with it: determined by p24. As to the method:
as §1, §2

In data set [3] the test system is HIV-1WRM8488. Nature of the data set: Anti-HIV-1 assay, monocytropic strain (p24). Type of data set: cell-based. The note with it: Human immunodeficiency virus 1; HIV-1WRM8488, m/m cells, determined by p24. As for the experimental part:
as §1, §2

Data set [4] in a line: Preliminary pharmacokinetic study in male adult rats. The note with it: rat; for half-life / AUC / Cmax: male, plasma; for AUC: read-out: AUC; for Cmax: read-out: Cmax. Type of data set: in vivo. As for the experimental part:
The bioavailability of the compounds were evaluated in male adult rats dosed intravenously through the tail vein (5 mg/kg) and orally (20 mg/kg). The plasma samples were collected at 2, 5, 15, 30, 60, 90, 120 and 240 minutes after intravenous dosing and 5, 15, 30, 60, 90, 120, 240 and 360 minutes after oral dosing.
Blood samples (1 ml) were collected from the rat tails into a vacutainer containing EDTA (3 ml) for both iv and po administrations. Plasma samples were prepared by centrifugation at 2000 ×g for 15 minutes at 4° C.
Plasma samples (diluted to 1 ml with water) were loaded onto the Abselut Nexus sorbent (# 1210-3100 ) and drawn through under low vacuum (approximately 5′′ Hg). One milliliter of deionized water was added to the sorbent and drawn through under vacuum. The extraction column was dried for 1 minute using a high vacuum (>10′′ Hg). One milliliter of methanol was added to the Abselut Nexus column and the eluent was collected at 1-2 ml/min. The eluent was evaporated to dryness using a Speed Vac, and the samples were reconstituted in 120 μl H2O; 100 μl was used for injection.

Data set [5] concerns Zidovudine^R/Lamivudine^R (3) clinical HIV-1 isolates (third group of Table 7). Nature of the data set: microbe, parasite or virus in culture. Type of data set: cell-based. As to the method:
as §1, with “The anti-HIV-1 activity of the compound A (−) were assessed by employing HIV-1IIIB in a variety of cell types as previously described (Gu et al., 1992, 1994, 1999; Rando et al., 1995; Salomon et al., 1994).” left out
Clinical strains were isolated from PBMCs of HIV-1 infected individuals through co-culture with PBMCs from normal dornors.

Data set [6] concerns DU-145. Nature of the data set: Cellular toxicity by [3H]-thymidine uptake. Type of data set: cell-based. The note with it: 72 hrs. In outline: (§3)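 Cells plated at 1-2×10^3/well, pre-incubated 24 h, then exposed 72 h to 10-fold serial compound dilutions (10^−4 M to 10^−10 M). [3H]-thymidine was added for the final 18 h and DNA incorporation counted after hypotonic lysis and harvesting. CC50 derived from cpm relative to untreated controls.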

Data set [7] has as its system HT1080. Nature of the data set: Cellular toxicity by [3H]-thymidine uptake. Type of data set: cell-based. As to conditions: Table 4; 72 hrs. In outline:
as §3

The subject of data set [8] is HepG-2. Nature of the data set: Cellular toxicity by [3H]-thymidine uptake. The class given is cell-based. The note with it: Table 4; 72 hrs. Summed up:
as §3

Data set [9] concerns HSF. Nature of the data set: Cellular toxicity by [3H]-thymidine uptake. The class given is cell-based. As to conditions: Table 14; 72 hrs; read-out: CC50 (μM) [^3H]TTP incorporation in: HSF. In outline:
as §3

The mark [10] stands for this setting: Human immunodeficiency virus 1, PBMC, PBMCs.
Setting [11] is: Human immunodeficiency virus 1, m/m cells.
Where [12] appears, read: Human immunodeficiency virus 1, read-out: EC50 (μM), mean EC50 values.
Setting [13] is: Human immunodeficiency virus 1, read-out: EC50 (μM), ranges of EC50s of the isolates in the same group.

The text below walks through data of patent US20010049372A1, “Antiviral nucleoside analogues” (BioChem Pharma Inc., priority 1998, published 2001).

Usually EC50 stands for the concentration giving half of the maximal effect. What is called half-life is the time in which the quantity being followed falls by half. The term AUC denotes the area under the concentration-time curve, a measure of exposure. As usually defined, the Cmax is the peak of the concentration-time curve.

Structures are written as SMILES. Where two headings read alike, the source gives them in different places.

Consider `Nc1nc(NC2CC2)c2ncn([C@H]3CO[C@@H](CO)O3)c2n1` [Compound A (-), (−)-(2R,4R)-2-hydroxymethyl-4-(2′-amino-6′-cyclopropylamino-purine-9′-yl)-1,3-dioxolane], for which the EC50 was 590 nM in data set [1]; 4140 nM in data set [2] (setting [10]); 22 nM in data set [2] (setting [11]); 28 nM in data set [3]; 0.19 µM in [5] (setting [12]); 0.066 to 0.33 µM in data set [5] (setting [13]). Besides, the half-life is 22.2 min in data set [4] (iv 5 mg/kg) and 38.4 min in data set [4] (oral 20 mg/kg). The AUC in data set [4] (iv 5 mg/kg) is 4740 ng·h/mL; in [4] (oral 20 mg/kg), 8640 ng·h/mL. Also, the maximum concentration (Cmax) was found to be 14300 ng/mL in [4] (iv 5 mg/kg) and 4200 ng/mL in data set [4] (oral 20 mg/kg). In data set [4] (oral 20 mg/kg), the “Oral BA (%)” value is given as 45.56%.

Regarding `Nc1ccn([C@@H]2CS[C@H](CO)O2)c(=O)n1` [Lamivudine, lamivudine], the “CC50 (μM) [^3H-]TTP incorporation in: U-145” value in [6] (Table 4) was >500/100. In addition, in data set [7], the “CC50 (μM) [^3H-]TTP incorporation in: HT1080” value is recorded as >500/100. In addition, the “CC50 (μM) [^3H-]TTP incorporation in: HepG2” value in data set [8] is on record as 350/100.

Consider `Cc1cn([C@H]2C[C@H](N=[N+]=[N-])[C@@H](CO)O2)c(=O)[nH]c1=O` [Zidovudine, zidovudine], for which the concentration for a half-maximal effect (EC50) in data set [1] is 1.7 nM; in data set [2] (setting [10]) it was 43 nM; in data set [2] (setting [11]), less than 1.1 nM; in data set [3], less than 1.1 nM; in [5] (setting [12]) it was 0.83 µM; in data set [5] (setting [13]) it was 0.25 to 1.74 µM. For the same molecule, the CC50 in data set [6] (Table 14, read-out: CC50 (μM) [^3H]TTP incorporation in: U145) was more than 10 µM; in [9], more than 10 µM.
